# Assays:
# Type in all cases: binding
# JAK1 = biological target: T1, JAK1 (Homo sapiens, UniProt P23458); test: Probe-based (AX9989) kinase profiling in Jurkat lysate: JAK1; conditions: read-out: JAK1 Inhibition % at indicated screening concentration; for inhibition at 10 µM: screening concentration 10 μM
# T1 construct: screened for activity against several kinases in Jurkat cells; endogenous in cells; host or cells: Jurkat cell lysate
# Method: (§1) In this example, potency of the compounds as ERK5 inhibitors was assessed, and the compounds were screened for activity against several kinases in Jurkat cells.
# (§2) Jurkat cell pellets were resuspended in four volumes of lysis buffer (50 mM HEPES pH 7.5, 150 mM NaCl, 0.1% Triton-X-100, 1% v/v phosphatase, inhibitor cocktail II [EMD/Calbiochem, #524625]), sonicated using a tip, sonicator, and Dounce homogenized. Lysate was cleared by centrifugation, at 16,000 g for 15 min., was gel filtered (BioRad 10DG) and MnCl2 was then added to a final concentration of 20 mM before treatment with the test compound and probe labeling. […] All compound treatments were performed at room temperature.
# (§3) Acyl phosphate ATP probe (AX9989) labeling reactions were performed at room temperature with a final probe concentration of 5 μM after a 15 min pre-incubation of lysate with a test compound. All reactions were performed in duplicate, using 445 μl/sample at 5 mg/ml. Probe-labeled lysates were denatured and reduced (6 M urea, 10 mM DTT, 65° C., 15 min), alkylated (40 mM iodoacetamide, 37° C., 30 min, and gel filtered (Sephadex G25) into 10 mM ammonium bicarbonate, 2 M urea, 5 mM methionine. The desalted protein mixture was digested with trypsin (0.015 mg/ml) for 1 hr at 37° C., and desthiobiotinylated peptides were captured using a […] high-capacity streptavidin resin (Thermo Scientific). Captured peptides were then washed extensively using 150 μl/wash with three different wash buffers: (A) 3 times with 1% triton, 0.5% tergitol, 1 mM EDTA in PBS; (B) 18 times with PBS; and (C) 8 times with HPLC grade water. Peptides were eluted from the streptavidin beads using two 35-μL washes of a 50% CH3CN/water mixture containing 0.1% TFA at room temperature.
# (§4) Kinase active site peptides were identified and quantified using LC/MS. Percent inhibition was calculated as the normalized decrease in the ESI-MS fragment intensities of probe-labeled peptides in samples incubated with the test compound compared to those without.
# AurB or AurC = test: Probe-based (AX9989) kinase profiling in Jurkat lysate: AurB or AurC
# Method: as §1, §2, §3, §4
# AMPKa1 or AMPKa2 = test: Probe-based (AX9989) kinase profiling in Jurkat lysate: AMPKa1 or AMPKa2
# Method: as §1, §2, §3, §4
# ABL or ARG = test: Probe-based (AX9989) kinase profiling in Jurkat lysate: ABL or ARG
# Method: as §1, §2, §3, §4
# ACK = biological target: T2, ACK (Homo sapiens, UniProt Q07912); test: Probe-based (AX9989) kinase profiling in Jurkat lysate: ACK; conditions: read-out: ACK Inhibition % at indicated screening concentration; for inhibition at 10 µM: screening concentration 10 μM
# T2 construct: screened for activity against several kinases in Jurkat cells; endogenous in cells; host or cells: Jurkat cell lysate
# T2 sequence (Q07912 whole entry): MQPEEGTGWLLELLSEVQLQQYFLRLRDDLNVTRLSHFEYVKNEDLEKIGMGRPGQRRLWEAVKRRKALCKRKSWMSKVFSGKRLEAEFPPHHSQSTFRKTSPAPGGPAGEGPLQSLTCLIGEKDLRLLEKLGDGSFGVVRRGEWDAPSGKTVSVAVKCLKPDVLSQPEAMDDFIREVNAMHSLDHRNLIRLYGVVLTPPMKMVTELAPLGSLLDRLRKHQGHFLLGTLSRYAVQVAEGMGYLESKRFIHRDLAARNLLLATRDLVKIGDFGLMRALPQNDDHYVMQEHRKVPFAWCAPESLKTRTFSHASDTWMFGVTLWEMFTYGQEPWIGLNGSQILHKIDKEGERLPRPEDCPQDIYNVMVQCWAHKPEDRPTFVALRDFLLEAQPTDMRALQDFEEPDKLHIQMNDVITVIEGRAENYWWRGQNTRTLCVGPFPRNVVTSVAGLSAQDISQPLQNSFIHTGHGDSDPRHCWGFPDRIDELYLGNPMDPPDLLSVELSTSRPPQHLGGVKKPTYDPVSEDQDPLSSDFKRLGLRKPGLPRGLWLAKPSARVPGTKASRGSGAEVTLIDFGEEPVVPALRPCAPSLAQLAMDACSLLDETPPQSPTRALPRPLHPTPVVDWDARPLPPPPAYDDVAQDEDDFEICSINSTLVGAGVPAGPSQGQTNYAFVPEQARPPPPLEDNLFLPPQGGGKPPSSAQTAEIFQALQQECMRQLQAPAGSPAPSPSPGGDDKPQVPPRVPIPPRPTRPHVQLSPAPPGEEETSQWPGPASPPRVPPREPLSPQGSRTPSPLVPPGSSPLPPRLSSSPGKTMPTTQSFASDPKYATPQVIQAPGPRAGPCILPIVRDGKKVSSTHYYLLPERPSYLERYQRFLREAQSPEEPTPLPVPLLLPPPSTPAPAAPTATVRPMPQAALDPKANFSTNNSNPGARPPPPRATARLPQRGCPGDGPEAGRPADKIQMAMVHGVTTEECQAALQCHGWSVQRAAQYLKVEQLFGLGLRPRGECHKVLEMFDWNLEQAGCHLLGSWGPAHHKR
# Method: as §1, §2, §3, §4
# TAO2 = biological target: T3, TAO2 (Homo sapiens, UniProt Q9UL54); test: Probe-based (AX9989) kinase profiling in Jurkat lysate: TAO2; conditions: read-out: TAO2 Inhibition % at indicated screening concentration; for inhibition at 10 µM: screening concentration 10 μM
# T3 construct: screened for activity against several kinases in Jurkat cells; endogenous in cells; host or cells: Jurkat cell lysate
# T3 sequence (Q9UL54 1-1235): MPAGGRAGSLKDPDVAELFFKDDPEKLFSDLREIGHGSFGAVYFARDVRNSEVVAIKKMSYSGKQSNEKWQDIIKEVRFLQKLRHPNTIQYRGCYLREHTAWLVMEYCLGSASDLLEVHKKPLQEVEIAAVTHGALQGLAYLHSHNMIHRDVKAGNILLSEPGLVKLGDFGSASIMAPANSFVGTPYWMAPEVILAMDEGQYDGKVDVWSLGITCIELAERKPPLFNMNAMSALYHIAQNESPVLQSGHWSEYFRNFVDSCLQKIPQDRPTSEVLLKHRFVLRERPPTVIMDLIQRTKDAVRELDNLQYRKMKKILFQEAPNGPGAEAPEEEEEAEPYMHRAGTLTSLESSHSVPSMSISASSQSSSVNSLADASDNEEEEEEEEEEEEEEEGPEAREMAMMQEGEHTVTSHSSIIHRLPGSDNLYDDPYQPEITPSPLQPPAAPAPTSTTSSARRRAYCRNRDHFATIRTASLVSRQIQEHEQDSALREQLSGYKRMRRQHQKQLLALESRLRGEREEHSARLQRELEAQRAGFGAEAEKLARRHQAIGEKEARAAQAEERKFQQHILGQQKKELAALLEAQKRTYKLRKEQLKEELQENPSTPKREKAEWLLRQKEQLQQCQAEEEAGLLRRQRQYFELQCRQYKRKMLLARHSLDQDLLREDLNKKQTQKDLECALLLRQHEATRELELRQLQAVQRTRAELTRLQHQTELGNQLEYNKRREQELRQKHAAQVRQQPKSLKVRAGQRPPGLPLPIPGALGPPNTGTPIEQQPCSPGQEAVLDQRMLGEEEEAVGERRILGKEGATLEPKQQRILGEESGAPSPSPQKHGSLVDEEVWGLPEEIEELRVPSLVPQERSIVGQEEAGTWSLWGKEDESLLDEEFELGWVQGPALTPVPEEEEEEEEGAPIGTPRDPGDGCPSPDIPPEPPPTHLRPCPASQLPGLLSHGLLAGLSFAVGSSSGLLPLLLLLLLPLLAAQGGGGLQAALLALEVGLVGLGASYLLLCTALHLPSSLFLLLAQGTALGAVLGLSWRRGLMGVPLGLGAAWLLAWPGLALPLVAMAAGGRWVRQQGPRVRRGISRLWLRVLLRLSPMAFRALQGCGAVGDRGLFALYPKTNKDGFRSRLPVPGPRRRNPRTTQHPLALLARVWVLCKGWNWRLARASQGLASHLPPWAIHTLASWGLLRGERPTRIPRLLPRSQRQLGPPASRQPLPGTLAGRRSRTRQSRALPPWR
# Method: as §1, §2, §3, §4
# AurA = biological target: T4, AurA (Homo sapiens, UniProt O14965); test: Probe-based (AX9989) kinase profiling in Jurkat lysate: AurA; conditions: read-out: AurA Inhibition % at indicated screening concentration; for inhibition at 10 µM: screening concentration 10 μM
# T4 construct: screened for activity against several kinases in Jurkat cells; endogenous in cells; host or cells: Jurkat cell lysate
# T4 sequence (O14965 1-403): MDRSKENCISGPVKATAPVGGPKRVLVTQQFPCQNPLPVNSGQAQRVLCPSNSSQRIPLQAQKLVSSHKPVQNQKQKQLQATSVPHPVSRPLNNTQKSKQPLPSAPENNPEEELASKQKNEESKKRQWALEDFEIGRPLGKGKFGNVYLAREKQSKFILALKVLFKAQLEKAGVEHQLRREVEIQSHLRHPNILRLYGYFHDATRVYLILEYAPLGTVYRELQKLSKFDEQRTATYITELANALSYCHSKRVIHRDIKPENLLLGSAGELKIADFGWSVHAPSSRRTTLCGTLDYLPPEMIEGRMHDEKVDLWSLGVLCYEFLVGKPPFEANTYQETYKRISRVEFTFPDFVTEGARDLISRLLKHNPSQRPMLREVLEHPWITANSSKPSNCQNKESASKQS
# Method: as §1, §2, §3, §4
# ERK5 = biological target: T5, ERK5 (Homo sapiens, UniProt Q13164); test: Probe-based (AX9989 acyl phosphate ATP probe) kinase profiling in Jurkat lysate: ERK5; conditions: for IC50: calculated from percent inhibition and screening concentration, Jurkat lysate, AX9989 probe; for inhibition at 10 µM: screening concentration 10 μM
# T5 construct: screened for activity against several kinases in Jurkat cells; endogenous in cells; host or cells: Jurkat cell lysate
# T5 sequence (Q13164 whole entry): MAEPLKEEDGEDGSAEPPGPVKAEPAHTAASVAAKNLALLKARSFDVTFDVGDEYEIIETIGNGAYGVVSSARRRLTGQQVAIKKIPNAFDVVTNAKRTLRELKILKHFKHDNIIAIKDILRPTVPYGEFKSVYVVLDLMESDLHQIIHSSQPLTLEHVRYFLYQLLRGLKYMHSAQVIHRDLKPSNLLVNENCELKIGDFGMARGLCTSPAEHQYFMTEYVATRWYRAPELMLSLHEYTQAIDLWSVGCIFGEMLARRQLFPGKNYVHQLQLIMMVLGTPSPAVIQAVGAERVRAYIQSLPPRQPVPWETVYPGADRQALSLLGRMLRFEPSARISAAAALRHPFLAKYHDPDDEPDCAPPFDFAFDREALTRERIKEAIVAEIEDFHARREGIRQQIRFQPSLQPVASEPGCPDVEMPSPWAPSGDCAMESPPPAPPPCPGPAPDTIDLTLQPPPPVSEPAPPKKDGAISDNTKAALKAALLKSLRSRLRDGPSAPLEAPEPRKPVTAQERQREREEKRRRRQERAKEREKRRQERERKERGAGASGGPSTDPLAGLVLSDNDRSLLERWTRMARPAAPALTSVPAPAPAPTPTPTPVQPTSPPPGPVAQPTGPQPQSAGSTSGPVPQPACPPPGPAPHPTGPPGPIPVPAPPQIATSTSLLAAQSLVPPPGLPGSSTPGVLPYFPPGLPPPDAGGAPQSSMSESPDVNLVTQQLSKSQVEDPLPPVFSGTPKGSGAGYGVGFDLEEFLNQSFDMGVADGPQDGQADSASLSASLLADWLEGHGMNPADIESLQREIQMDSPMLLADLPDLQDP
# Method: as §1, §2, §3, §4
# ERK5 IC50 values were calculated from the percent inhibition and the screening concentration.
# [1] = read-out: ERK5 Inhibition % at indicated screening concentration
# T1 sequence (P23458 whole entry): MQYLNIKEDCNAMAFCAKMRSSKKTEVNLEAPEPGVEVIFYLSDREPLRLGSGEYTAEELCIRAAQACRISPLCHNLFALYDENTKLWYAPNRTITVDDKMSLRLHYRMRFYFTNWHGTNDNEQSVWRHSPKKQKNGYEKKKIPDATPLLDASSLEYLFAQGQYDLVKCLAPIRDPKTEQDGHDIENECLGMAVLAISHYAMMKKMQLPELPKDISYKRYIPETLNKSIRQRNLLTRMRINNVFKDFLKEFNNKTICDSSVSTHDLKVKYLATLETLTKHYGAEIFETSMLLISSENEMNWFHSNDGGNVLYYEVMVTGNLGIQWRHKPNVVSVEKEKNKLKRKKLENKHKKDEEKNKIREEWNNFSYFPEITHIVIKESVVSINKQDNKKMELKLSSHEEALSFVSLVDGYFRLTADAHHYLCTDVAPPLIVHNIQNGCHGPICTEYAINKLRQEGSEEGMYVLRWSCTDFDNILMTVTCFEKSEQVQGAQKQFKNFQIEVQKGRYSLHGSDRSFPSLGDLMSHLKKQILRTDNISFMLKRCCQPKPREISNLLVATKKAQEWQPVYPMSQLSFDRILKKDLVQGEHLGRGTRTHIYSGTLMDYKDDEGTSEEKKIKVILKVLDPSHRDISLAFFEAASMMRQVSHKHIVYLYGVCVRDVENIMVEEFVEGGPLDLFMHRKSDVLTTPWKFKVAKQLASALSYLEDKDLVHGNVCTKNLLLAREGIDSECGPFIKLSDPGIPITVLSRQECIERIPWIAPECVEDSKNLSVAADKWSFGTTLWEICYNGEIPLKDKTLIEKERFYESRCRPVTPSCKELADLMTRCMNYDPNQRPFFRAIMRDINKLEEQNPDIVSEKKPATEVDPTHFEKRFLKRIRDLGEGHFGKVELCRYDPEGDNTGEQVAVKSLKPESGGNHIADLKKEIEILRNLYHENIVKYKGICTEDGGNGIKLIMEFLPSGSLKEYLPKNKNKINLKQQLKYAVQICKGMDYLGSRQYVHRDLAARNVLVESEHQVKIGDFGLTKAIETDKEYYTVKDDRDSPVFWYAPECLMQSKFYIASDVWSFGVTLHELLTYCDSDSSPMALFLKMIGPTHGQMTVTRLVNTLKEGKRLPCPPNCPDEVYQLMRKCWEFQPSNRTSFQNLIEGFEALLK
inhibition at 10 µM (JAK1),AurB or AurC Inhibition % at indicated screening concentration (AurB or AurC; screening concentration 10 μM),AMPKa1 or AMPKa2 Inhibition % at indicated screening concentration (AMPKa1 or AMPKa2; screening concentration 10 μM),ABL or ARG Inhibition % at indicated screening concentration (ABL or ARG; screening concentration 10 μM),inhibition at 10 µM (ACK),inhibition at 10 µM (TAO2),inhibition at 10 µM (AurA),IC50 (ERK5),inhibition at 10 µM (ERK5; [1]),inhibition at 1 µM (JAK1; screening concentration 1 μM),AurB or AurC Inhibition % at indicated screening concentration (AurB or AurC; screening concentration 1 μM),AMPKa1 or AMPKa2 Inhibition % at indicated screening concentration (AMPKa1 or AMPKa2; screening concentration 1 μM),ABL or ARG Inhibition % at indicated screening concentration (ABL or ARG; screening concentration 1 μM),inhibition at 1 µM (ACK; screening concentration 1 μM),inhibition at 1 µM (TAO2; screening concentration 1 μM),inhibition at 1 µM (AurA; screening concentration 1 μM),"inhibition at 1 µM (ERK5; screening concentration 1 μM, read-out: ERK5 Inhibition % at indicated screening concentration)",Compound
≤ 35%,E (E is ≦35%),E (E is ≦35%),E (E is ≦35%),≤ 35%,≤ 35%,≤ 35%,> 500 nM,35 to 50%,–,–,–,–,–,–,–,–,CCOc1cc(C(=O)N2CCC(N3CCCC3)CC2)ccc1Nc1cc2c(cn1)N(C)S(=O)(=O)c1ccccc1N2C [Compound T2]
≤ 35%,E (E is ≦35%),E (E is ≦35%),E (E is ≦35%),≤ 35%,≤ 35%,≤ 35%,> 500 nM,≤ 35%,–,–,–,–,–,–,–,–,CCOc1cc(C(=O)N2CC[C@@H](N(C)C)C2)ccc1Nc1cc2c(cn1)N(C)S(=O)(=O)c1ccccc1N2C [Compound T3]
–,–,–,–,–,–,–,101 to 500 nM,–,≤ 35%,E (E is ≦35%),E (E is ≦35%),E (E is ≦35%),≤ 35%,≤ 35%,≤ 35%,50 to 75%,"CCOc1cc(C(=O)N2CCOCC2)ccc1Nc1cc2c(cn1)N(C)C(=O)c1ccccc1S2 [Compound T82, 3-((2-ethoxy-4-(morpholine-4-carbonyl)phenyl)amino)-11-methylbenzo[f]pyrido[4,3-b][1,4]thiazepin-10(11H)-one]"
≤ 35%,E (E is ≦35%),E (E is ≦35%),E (E is ≦35%),≤ 35%,≤ 35%,≤ 35%,> 500 nM,75 to 90%,–,–,–,–,–,–,–,–,"CCOc1cc(C(=O)N2CCOCC2)ccc1Nc1cc2c(cn1)N(C)C(=O)c1ccccc1[S+]2[O-] (stereo not drawn) [Compound T83, 3-((2-ethoxy-4-(morpholine-4-carbonyl)phenyl)amino)-11-methylbenzo[f]pyrido[4,3-b][1,4]thiazepin-10(11H)-one 5-oxide]"

# Source: patent US20170008888A1 (KYORIN PHARMACEUTICAL CO., LTD., priority 2014, published 2017)
